Entries after “also recorded” stand apart in the source; their conditions may differ.
Experiments:
[1] = test system: degron CARs (anti-CD123, anti-CD22) with NS3 protease domain in primary human T-cells; assay: Surface expression of C-terminal fusion degron CARs in primary human T-cells (flow cytometry, labeled recombinant CD22 or CD123); type: cell-based; conditions: 500 nM Asunaprevir for 48 h, FIG. 6
Excerpt: FIG. 6: Experimental results obtained with T-cells endowed with the CARs of the present invention. 6A: Percentage of CAR positive T-cells (presentation of anti-CD123 CARs at the surface of the transduced cells) in presence or absence of the protease inhibitor Asunaprevir. 6B: Percentage of CAR positive T-cells (presentation of anti-CD22 CARs at the surface of the transduced cells) in presence or absence of the protease inhibitor Asunaprevir). Controls are T-cells endowed with CARs lacking controlled degradation moiety (high presentation of CARs at the surface of the transduced cells). The percentage of CAR positive cells is measured by flow cytometry. Experimental details are provided in example 2.
3-5 days post transduction T-cells were incubated with or without 500 nM Asunaprevir for 48 h. The proportion of T-cells expressing the CAR at their surface was then quantified using labeled recombinant protein CD22 or CD123 targeted by the CAR (LakePharma).

T-cells = assay: T-cell proliferation in presence of Asunaprevir; type: cell-based, human; conditions: 100 nM to 1 μM ASN; FIG. 9
Experimental: FIG. 9: Proliferation of T-cells in the presence of increasing concentrations of Asunaprevir (see example 5). The total number of cells at different days cultured in presence of 100 nM, 500 nM or 1000 nM relative to 0 nM ASN is presented. Data are shown as the median of PBMC from 2 donors done in duplicate.
T-cells were cultured in X-Vivo 15 (Lonza) supplemented with 5% human serum hAB (Gemini) and 20 ng/ml IL-2 (Miltenyi) at a density of 1×10^6 cells/ml in presence of various dose (0-1000 nM) of the Asunaprevir protease inhibitor.

[2] = test system: anti-CD22 CAR T-cells co-cultured with Raji target cells; assay: Cytokine profiling of anti-CD22 CAR T-cells co-cultured with Raji target cells in presence of Asunaprevir; type: cell-based, human; conditions: various concentrations of ASN, 24 hours co-culture with Raji; FIG. 10
Experimental: FIG. 10: Cytokine quantification after co-culture of anti-CD22 CAR T-cells with target cells as a function of Asunaprevir concentration (see example 6). Data are shown as the mean±SD of duplicates per points.
T-cells were co-cultured with Raji target cells in 12-well culture plates in the presence of various concentrations of ASN for 24 hours. Cells were spun down, and the supernatants were aliquoted and frozen. Cytokine levels in the supernatants were measured with LEGEND plex Human Th Cytokine panel (Biolegend).

[3] = test system: Raji target cells killed by SWOFF anti-CD22 CAR T-cells (TRAC locus integration); assay: Cytotoxicity of T-cells with SWOFF anti-CD22 CAR integrated at the TRAC locus against luciferase-expressing Raji cells, Asunaprevir dose response; type: cell-based, human
Excerpt: Data are shown as median with 95% confidence intervals of triplicates per points. N=2, performed in triplicates.
T-cells were then passaged the day prior to the transfection/transduction at 1×10^6 cells/ml in complete media. On the day of transfection/transduction, the cells were de-beaded by magnetic separation (EasySep), washed twice in Cytoporation buffer T (BTX Harvard Apparatus, Holliston, Mass.), and resuspended at a final concentration of 28×10^6 cells/ml in the same solution.
The electroporated cells were then immediately transferred to a 12-well plate containing 1 ml of prewarmed X-vivo-15 serum-free media and incubated for 37° C. for 15 min. The cells were then plated at a concentration of 10,000 cells/well with AAV in a 20 μl total volume of serum-free media (MOI: 1×10^5 vg/cells) in 96-well round bottom plates. […] 100 pL of fresh complete media was then added. Six days after transduction, 0.5×10^6 cells were seeded in a G-Rex 24-well plate (Wilson Wolf) in 5 ml of complete X-vivo-15 media and cultivated for 11 days.
After 24 h, the cells are collected and mixed, and 100 ul of cells was used for luciferase quantification (OneGlo, Promega). The remainder of the cells were pelleted and resuspended in fresh X-vivo 15 media with 5% hAB serum, no 11-2 (supplemented with or without 1-500 nM Asunaprevir), and an additional 0.5×10^6 target cells were added.

[4] = test system: CD22 positive Raji cells killed by anti-CD22 degron CAR T-cells; assay: Cytolytic properties of anti-CD22 degron CAR T-cells after wash-out of Asunaprevir; conditions: 500 nM Asunaprevir, wash-out 48 h, 24 h or 0 h prior to cytotoxicity assay; Raji 3:1; FIGS. 8A and 8B
Experimental: A fraction of the cells is maintained under 500 nM of Asunaprevir (correspond to the no wash-out point).
After 24 h the cells are pelleted, the supernatant is collected for luciferase quantification.

[5] = test system: CD22 positive target cells (Raji) killed by degron CAR T-cells; assay: Cytolytic properties of C-terminal fusion degron CAR T-cells against luciferase-expressing Raji cells with Asunaprevir; conditions: 500 nM Asunaprevir; T-cells:Raji 3:1; 3 consecutive days; FIG. 7
Experimental: Data are normalized using untransduced human primary T-cells.
After 24 h the cells were pelleted, the supernatant was collected for luciferase quantification and the pelleted cells were resuspended in fresh complete X-vivo (supplemented or not with 500 nM Asunaprevir) media and 0.5×10^6 target cells (CD22 positive cells) were added.

C=C[C@@H]1C[C@]1(NC(=O)[C@@H]1C[C@@H](Oc2ncc(OC)c3ccc(Cl)cc23)CN1C(=O)[C@@H](NC(=O)OC(C)(C)C)C(C)(C)C)C(=O)NS(=O)(=O)C1CC1 [Asunaprevir, asunaprevir]
CAR presentation at the surface, control CARs lacking the self-excising degron ([1]; control CARs): did not react
CAR presentation at the surface of the transduced T-cells population ([1]; degron CARs anti-CD123 / anti-CD22): could be controlled by Asunaprevir
proliferation of the T-cells (T-cells): no effects
viability of the T-cells (T-cells): no effects
cytokine production [2]: did not result in notable variations
CAR T-cells cytolytic properties (luciferase signal of target cells) ([3]; 1 to 500 nM Asunaprevir, T-cells:Raji 3:1, FIG. 14): controlled by addition of Asunaprevir
IC50 ([3]; Homo sapiens, Raji, read-out: IC50 of control of CAR T-cells cytolytic properties): ~15 nM
CAR cytolytic properties after wash-out of Asunaprevir [4]: controlled by Asunaprevir in a reversible manner
CAR cytolytic properties (percentage of CD22 positive target cells killed) [5]: could be negatively controlled; also recorded: reduced

Source: patent US20200140560A1, “PROTEASE BASED SWITCH CHIMERIC ANTIGEN RECEPTORS FOR SAFER CELL IMMUNOTHERAPY” (CELLECTIS, priority 2017, published 2020)
